Laboratory results taken from patent US9060945B2, “Use of danielone and derivatives thereof in skin care” (DSM IP Assets B.V., priority 2012, dated 2015).

Key:
Type in all cases: cell-based
[1] = tested on: Normal human melanocytes NHM (HEMn-MP); assay: Effect on melanogenesis, comparative example (melanin synthesis in cell culture); details: for skin whitening activity (in words): at all three concentrations tested; for % melanin inhibition: 3 days, 405 nm
Description: Normal human melanocytes NHM (HEMn-MP) were seeded in 96 well cell culture plates (20′000 cells per well) and grown to sub-confluence for three days in a 1:2 mixture of M2-Medium (Clonetics) and Promocell-Medium together ‘Culture medium’. Culture medium was exchanged with Culture Medium containing compound and melanogenesis progressed for another three days at a temperature of 37° C. and at 5% CO2 atmosphere. Including cell layer and culture supernatant total melanin was extracted using 1.7M KOH with shaking at 300 rpm for approximately 1 hour at RT. We measured melanin content at 405 nm in an absorbance plate reader. The experiment was done in triplicates. We used PTU as a positive control.

[2] = tested on: Normal human melanocytes moderately pigmented (HEMn-MP); assay: Cytotoxicity, MTT assay; details: 3 days incubation, OD 550 nm
Description: Cytotoxicity was measured using the MTT assay (Roche). In brief: Normal human melanocytes moderately pigmented (HEMn-MP) were precultured for 24 hrs, and then incubated with compounds for three days. We then added MTT (Roche) labeling reagent 10 μl to each well (final concentration 0.5 mg/ml) and incubated the microtiterplate for 4 hrs at 37° C., and under 5% CO2. After addition of 100 μl solubilisation solution into each well, the plate was allowed to stand overnight in the incubator (37° C., 5% CO2. The absorbance OD 550 nm was measured in an absorbance plate reader (ELX 800 BIO-TEK Instrument) and the data is shown in Table 1.

[3] = tested on: Human melanocytes moderately pigmented (HEMn-MP); assay: Cell-pellet depigmentation assay; details: scale 1 to 5 (5 = dark control cell pellet, 1 = very light brown cell pellet)
Description: Human melanocytes moderately pigmented (HEMn-MP) were seeded in 6-well culture plates at a cell density of 2×10E5 cells/mL and preincubated for three days in a 1:2 mixture of M2-Medium (Clonetics) and Promocell-Medium together ‘Culture medium’ in an incubator at a temperature of 37° C. and at 5% CO2 Atmosphere. Culture medium was exchanged with Culture Medium containing compound and melanogenesis progressed for another three days in an incubator at same incubation conditions as described above. Compound dilutions were done in duplicates. Cells were harvested after trypsinization and pooled in eppendorf-tubes, centrifugated and supernatant removed. The remaining cell pellet was photographed and visually checked for whitening effects. The pellets were scored for their darkness in a scale 1 to 5 (5 corresponding to dark control cell pellet) and 1 corresponding to a very light brown cell pellet.

[4] = tested on: Normal human melanocytes moderately pigmented (HEMn-MP); assay: Quantification of melanin synthesis in cell culture; details: 3 days, baseline = 100, 405 nm
Description: Normal human melanocytes moderately pigmented (HEMn-MP) were seeded in 96 well cell culture plates (20′000 cells per well) and grown to sub-confluence for three days in a 1:2 mixture of M2-Medium (Clonetics) and Promocell-Medium together ‘Culture medium’. Culture medium was exchanged with Culture Medium containing compound and melanogenesis progressed for another three days in an incubator at a temperature of 37° C. and at 5% CO2 atmosphere. Including cell layer and culture supernatant total melanin was extracted using 1.7M KOH with shaking at 300 rpm for approximately 1 hour at room temperature. We measured melanin content at 405 nm in an absorbance plate reader. We use phenylthiourea (PTU) as a positive control at a concentration of 0.0152% (1 mM). PTU is a tyrosinase inhibitor (Poma 1999) and is commonly used as a reference in cell pigmentation assays (see e.g. Le Pape 2008).

COc1cc(C(=O)CO)cc(OC)c1O [Danielone, 2-hydroxy-1-(4-hydroxy-3,5-dimethoxy-phenyl)-ethanone]
skin whitening activity (in words) [1]: very efficient
% melanin inhibition ([1]; concentration 0.0025%): 1.51%
% melanin inhibition ([1]; concentration 0.005%): −40.20%
% melanin inhibition ([1]; concentration 0.01%): −49.25%
Viability ([2]; concentration 0.00025 %): 112%
Viability ([2]; concentration 0.0025 %): 113%
Viability ([2]; concentration 0.025 %): 51%
Darkness level of the cell pellet ([3]; 0.0025%): 2
Total melanin ([4]; concentration 0.000625 %): 104%
Total melanin ([4]; concentration 0.00125 %): 75%
Total melanin ([4]; concentration 0.0025 %): 66%

NC(=S)Nc1ccccc1 [PTU, phenylthiourea, reference compound]
Darkness level of the cell pellet ([3]; 0.0152%): 1
Total melanin ([4]; concentration 0.0152 % (1 mM)): 58%

COc1cc(C(=O)CCO)ccc1O [beta-hydroxypropiovanillon, reference compound]
skin whitening activity (in words) [1]: no activity
% melanin inhibition ([1]; concentration 0.0025%): 7.45%
% melanin inhibition ([1]; concentration 0.005%): 7.45%
% melanin inhibition ([1]; concentration 0.01%): 4.26%
